Assay results published in PMC6789174 (Drug Design, Development and Therapy, 2019).
In brackets after ≈: the same amount, converted by molar mass.

Experiments:
[1] = molecular target: Acetylcholinesterase (Homo sapiens, UniProt P22303); assay: biochemical
[2] = ABTS free radical scavenging
[3] = DPPH free radical scavenging
[4] = molecular target: Butyrylcholinesterase (Homo sapiens, UniProt P06276); assay: Anticholinesterase assay; assay type: biochemical
[5] = system: Agrobacterium tumefaction; assay: Anti-bacterial activity, agar well diffusion; assay type: cell-based
[6] = molecular target: T1, glucose-6-phosphatase (Homo sapiens, UniProt P35575); assay: Glucose-6-phosphatase activity; assay type: biochemical; conditions: 33°C, pH 6.7, control 72.0
T1 sequence (P35575 1-357): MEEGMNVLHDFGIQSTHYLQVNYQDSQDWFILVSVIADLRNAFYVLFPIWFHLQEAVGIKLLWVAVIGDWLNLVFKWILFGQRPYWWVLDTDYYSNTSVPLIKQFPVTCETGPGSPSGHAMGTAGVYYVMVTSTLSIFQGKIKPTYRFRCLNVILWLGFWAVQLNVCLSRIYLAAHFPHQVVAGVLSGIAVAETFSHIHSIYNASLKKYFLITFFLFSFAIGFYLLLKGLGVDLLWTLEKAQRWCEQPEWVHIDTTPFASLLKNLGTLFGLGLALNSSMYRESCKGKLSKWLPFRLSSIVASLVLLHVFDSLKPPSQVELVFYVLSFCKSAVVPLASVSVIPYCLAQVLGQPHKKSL

[7] = system: Staphylococcus aureus; assay: Anti-bacterial activity, agar well diffusion; assay type: cell-based
[8] = system: Proteus vulgaris; assay: Anti-bacterial activity, agar well diffusion; assay type: cell-based
[9] = molecular target: T2, porcine α-amylase (Sus scrofa, UniProt P00690); assay: biochemical
T2 sequence (P00690 16-511): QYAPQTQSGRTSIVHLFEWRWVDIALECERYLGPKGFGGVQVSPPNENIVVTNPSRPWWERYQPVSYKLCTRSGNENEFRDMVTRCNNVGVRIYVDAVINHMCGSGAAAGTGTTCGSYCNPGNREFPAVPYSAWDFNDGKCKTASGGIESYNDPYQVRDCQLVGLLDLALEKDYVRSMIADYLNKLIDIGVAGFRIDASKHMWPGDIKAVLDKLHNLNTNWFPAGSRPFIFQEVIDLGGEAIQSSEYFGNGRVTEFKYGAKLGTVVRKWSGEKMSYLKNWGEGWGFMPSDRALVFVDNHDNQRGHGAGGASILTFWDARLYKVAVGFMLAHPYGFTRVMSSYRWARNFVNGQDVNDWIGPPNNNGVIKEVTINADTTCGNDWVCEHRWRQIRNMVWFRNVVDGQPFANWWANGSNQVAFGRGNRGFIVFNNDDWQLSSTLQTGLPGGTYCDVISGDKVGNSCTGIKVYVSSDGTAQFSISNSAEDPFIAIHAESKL

[10] = molecular target: α-glucosidase (Saccharomyces cerevisiae, UniProt P53341); assay: Alpha glucosidase inhibition; assay type: biochemical; conditions: concentration 250 μg/mL
[11] = read-out: %AChE Inhibition (mean ± SEM)
[12] = read-out: %BChE Inhibition (mean ± SEM)
[13] = read-out: ZI (Zone of inhibition), Agrobacterium tumefaction
[14] = read-out: ZI (Zone of inhibition), Staphylococcus aureus
[15] = read-out: ZI (Zone of inhibition), Proteus vulgaris

Chain of Butyrylcholinesterase (P06276 29-602): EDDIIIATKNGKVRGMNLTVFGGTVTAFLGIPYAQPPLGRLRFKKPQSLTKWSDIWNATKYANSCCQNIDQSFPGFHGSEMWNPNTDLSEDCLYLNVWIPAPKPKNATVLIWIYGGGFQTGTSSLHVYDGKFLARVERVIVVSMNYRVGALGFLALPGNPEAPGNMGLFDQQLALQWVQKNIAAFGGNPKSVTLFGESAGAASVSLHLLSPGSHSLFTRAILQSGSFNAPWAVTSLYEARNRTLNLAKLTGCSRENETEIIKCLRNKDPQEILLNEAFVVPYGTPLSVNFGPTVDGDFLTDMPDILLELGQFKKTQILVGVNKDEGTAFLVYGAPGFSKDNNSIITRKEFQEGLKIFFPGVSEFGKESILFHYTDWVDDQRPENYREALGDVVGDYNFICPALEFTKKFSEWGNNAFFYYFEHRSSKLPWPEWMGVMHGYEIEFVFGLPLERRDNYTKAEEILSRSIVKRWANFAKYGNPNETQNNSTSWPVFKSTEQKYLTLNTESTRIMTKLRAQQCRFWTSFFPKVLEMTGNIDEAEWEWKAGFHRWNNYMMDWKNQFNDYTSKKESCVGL
Chain of Acetylcholinesterase (P22303 32-614, species assumed): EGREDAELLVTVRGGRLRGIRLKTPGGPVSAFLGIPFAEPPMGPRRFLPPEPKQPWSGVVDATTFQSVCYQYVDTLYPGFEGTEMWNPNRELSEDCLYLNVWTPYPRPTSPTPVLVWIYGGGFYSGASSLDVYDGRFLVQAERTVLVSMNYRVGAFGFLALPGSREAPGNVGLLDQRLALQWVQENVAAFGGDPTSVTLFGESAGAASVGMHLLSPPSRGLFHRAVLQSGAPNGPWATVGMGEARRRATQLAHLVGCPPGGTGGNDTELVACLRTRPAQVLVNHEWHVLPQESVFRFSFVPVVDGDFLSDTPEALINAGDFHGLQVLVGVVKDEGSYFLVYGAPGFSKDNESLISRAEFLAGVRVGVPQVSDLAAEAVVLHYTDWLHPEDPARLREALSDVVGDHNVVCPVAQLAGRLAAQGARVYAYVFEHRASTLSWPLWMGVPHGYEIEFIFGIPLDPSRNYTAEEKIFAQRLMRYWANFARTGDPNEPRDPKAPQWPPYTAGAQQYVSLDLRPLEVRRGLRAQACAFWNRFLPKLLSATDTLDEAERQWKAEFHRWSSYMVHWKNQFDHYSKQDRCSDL
Chain of α-glucosidase (P53341 whole entry): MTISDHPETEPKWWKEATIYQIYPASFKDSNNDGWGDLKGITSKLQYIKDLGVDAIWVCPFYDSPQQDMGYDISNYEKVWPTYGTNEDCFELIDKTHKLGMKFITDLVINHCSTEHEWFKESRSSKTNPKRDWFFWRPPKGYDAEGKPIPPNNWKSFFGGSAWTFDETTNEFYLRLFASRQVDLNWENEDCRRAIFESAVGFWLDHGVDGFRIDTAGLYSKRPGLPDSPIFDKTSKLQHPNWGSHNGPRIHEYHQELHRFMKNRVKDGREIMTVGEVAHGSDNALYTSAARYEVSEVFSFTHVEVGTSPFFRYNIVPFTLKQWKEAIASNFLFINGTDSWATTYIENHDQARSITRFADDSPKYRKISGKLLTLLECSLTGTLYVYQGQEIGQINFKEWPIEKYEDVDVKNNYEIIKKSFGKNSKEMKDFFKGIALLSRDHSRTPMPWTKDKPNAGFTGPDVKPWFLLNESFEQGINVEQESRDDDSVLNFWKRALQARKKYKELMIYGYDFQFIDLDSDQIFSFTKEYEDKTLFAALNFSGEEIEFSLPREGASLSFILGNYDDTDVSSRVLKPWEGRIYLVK

Cc1ccc(NC(=S)Nc2ccccc2)c(C)c1 [Compound IV, 1-(2,4-dimethylphenyl)-3-phenylthiourea]
IC50 [1]: 1.96 mM | inhibition at 125 µg/mL [1, 11]: 42 ± 1.01% | inhibition at 250 µg/mL [1, 11]: 45.1 ± 1.83% | inhibition at 500 µg/mL [1, 11]: 50 ± 1.88% | inhibition at 1000 µg/mL [1, 11]: 64 ± 1.7% | ABTS IC50 [2]: 100 µg/mL | ABTS radical scavenging, in words [2]: moderately effective | ABTS % I (mean ± S.E.M) ([2]; concentration 125 μg/mL): 64.81 ± 1.05% | ABTS % I (mean ± S.E.M) ([2]; concentration 250 μg/mL): 70.13± 0.05% | ABTS % I (mean ± S.E.M) ([2]; concentration 500 μg/mL): 74.99 ± 1.51% | ABTS % I (mean ± S.E.M) ([2]; concentration 1000 μg/mL): 78.15 ± 1.21% | DPPH IC50 [3]: 64 µg/mL | DPPH % I (mean ± S.E.M) ([3]; concentration 125 μg/mL): 66.15 ± 1.70% | DPPH % I (mean ± S.E.M) ([3]; concentration 250 μg/mL): 69.31 ± 2.11% | DPPH % I (mean ± S.E.M) ([3]; concentration 500 μg/mL): 74.13 ± 1.51% | DPPH % I (mean ± S.E.M) ([3]; concentration 1000 μg/mL): 79.15 ± 1.23% | IC50 [4]: 585 µM | inhibition at 125 µg/mL [4, 12]: 49.8 ± 1.53% | inhibition at 250 µg/mL [4, 12]: 53.5 ± 1.07% | inhibition at 500 µg/mL [4, 12]: 60.5 ± 1.61% | inhibition at 1000 µg/mL [4, 12]: 76.1 ± 1.9% | MIC ([5]; read-out: MIC, Agrobacterium tumefaction): 13.5 µg/mL (≈ 52.6 µM) | zone of inhibition at 10 µg/mL [5, 13]: 14 mm | zone of inhibition at 20 µg/mL [5, 13]: 18 mm | zone of inhibition at 30 µg/mL [5, 13]: 23 mm | Total Activity of glucose-6-phosphatase ([6]; concentration 125 µg/mL): 17.70 mg of P released per hour | Total Activity of glucose-6-phosphatase ([6]; concentration 250 µg/mL): 13.58 mg of P released per hour | Total Activity of glucose-6-phosphatase ([6]; concentration 500 µg/mL): 11.77 mg of P released per hour | MIC ([7]; read-out: MIC, Staphylococcus aureus): 4.03 µg/mL (≈ 15.7 µM) | zone of inhibition at 10 µg/mL [7, 14]: 21 mm | zone of inhibition at 20 µg/mL [7, 14]: 23 mm | zone of inhibition at 30 µg/mL [7, 14]: 26 mm | MIC ([8]; read-out: MIC, Proteus vulgaris): 11.9 µg/mL (≈ 46.5 µM) | zone of inhibition at 10 µg/mL [8, 15]: 14 mm | zone of inhibition at 20 µg/mL [8, 15]: 18 mm | zone of inhibition at 30 µg/mL [8, 15]: 23 mm | IC50 [9]: 242 µM | inhibition at 125 µg/mL ([9]; read-out: %Inhibition (mean ± SEM), alpha amylase, concentration 125 µg/mL): 69 ± 1.19% | inhibition at 250 µg/mL ([9]; read-out: %Inhibition (mean ± SEM), alpha amylase, concentration 250 µg/mL): 75.63 ± 0.63% | inhibition at 500 µg/mL ([9]; read-out: %Inhibition (mean ± SEM), alpha amylase, concentration 500 µg/mL): 79.2 ± 1.09% | inhibition at 1000 µg/mL ([9]; read-out: %Inhibition (mean ± SEM), alpha amylase, concentration 1000 µg/mL): 80.1 ± 2.02% | %Inhibition (mean ± SEM), alpha glucosidase [10]: 55.88 ± 2.04%
